Experiments:
[1] = compound: CC1=CC(=C(N1C2=CC=C(C=C2)Cl)C)C(=O)CN3CCCCC3 [IU1-47] + NC(=O)Nc1cc(-c2cccc(F)c2)sc1C(=O)N[C@H]1CCCNC1 [AZD7762] (partner 0.2 µM); assay: relative viability (nuclei count vs DMSO), 5 days (fraction); higher = more cells survive
How it was run: (§1)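 Relative viability was taken as the ratio of nuclei in treated wells to nuclei in vehicle wells. Lung cancer cell lines in 1536-well plates received compounds by pin tool one day after seeding, either one drug alone or a fixed anchor-drug dose plus five library-drug doses (not always all listed) in √10 steps. Nuclei were counted on 4× images after 5 days of treatment, and values are medians of duplicate plates.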

[2] = compound: CC1=CC(=C(N1C2=CC=C(C=C2)Cl)C)C(=O)CN3CCCCC3 [IU1-47] + O=C(CCCCCCC(=O)Nc1ccccc1)NO [Vorinostat] (partner 1 µM); assay: as above
How it was run: as §1

Cell Line: HOP-62
- relative viability ([1]; first compound 0.08 µM): 0.488
- relative viability ([1]; first compound 0.253 µM): 0.712
- relative viability ([1]; first compound 0.8 µM): 0.619
- relative viability ([1]; first compound 2.53 µM): 0.493
- relative viability ([1]; first compound 8 µM): 0.608
- relative viability ([2]; first compound 0.08 µM): 0.693
- relative viability ([2]; first compound 0.253 µM): 0.675
- relative viability ([2]; first compound 0.8 µM): 0.752
- relative viability ([2]; first compound 2.53 µM): 0.433
- relative viability ([2]; first compound 8 µM): 0.532

Cell Line: IA-LM
- relative viability ([2]; first compound 0.08 µM): 0.951
- relative viability ([2]; first compound 0.253 µM): 1.13
- relative viability ([2]; first compound 0.8 µM): 1.11
- relative viability ([2]; first compound 2.53 µM): 0.444
- relative viability ([2]; first compound 8 µM): 1.06

Cell Line: LC-2-ad
- relative viability ([1]; first compound 0.08 µM): 0.851
- relative viability ([1]; first compound 0.253 µM): 0.84
- relative viability ([1]; first compound 0.8 µM): 0.866
- relative viability ([1]; first compound 8 µM): 0.857
- relative viability ([2]; first compound 0.08 µM): 0.736
- relative viability ([2]; first compound 0.253 µM): 0.736
- relative viability ([2]; first compound 0.8 µM): 0.71
- relative viability ([2]; first compound 8 µM): 0.715

Cell Line: LCLC-97TM1
- relative viability ([1]; first compound 0.08 µM): 0.31
- relative viability ([1]; first compound 0.253 µM): 0.286
- relative viability ([1]; first compound 0.8 µM): 0.294
- relative viability ([1]; first compound 2.53 µM): 0.0924
- relative viability ([1]; first compound 8 µM): 0.245
- relative viability ([2]; first compound 0.08 µM): 0.919
- relative viability ([2]; first compound 0.253 µM): 0.869
- relative viability ([2]; first compound 0.8 µM): 0.82
- relative viability ([2]; first compound 8 µM): 0.571

Cell Line: LCLC-103H
- relative viability ([1]; first compound 0.08 µM): 0.84
- relative viability ([1]; first compound 0.253 µM): 0.948
- relative viability ([1]; first compound 0.8 µM): 0.797
- relative viability ([1]; first compound 2.53 µM): 0.54
- relative viability ([1]; first compound 8 µM): 0.807
- relative viability ([2]; first compound 0.08 µM): 0.748
- relative viability ([2]; first compound 0.253 µM): 0.819
- relative viability ([2]; first compound 0.8 µM): 0.82
- relative viability ([2]; first compound 2.53 µM): 0.561
- relative viability ([2]; first compound 8 µM): 0.704

Cell Line: LK-2
- relative viability ([1]; first compound 0.08 µM): 0.488
- relative viability ([1]; first compound 0.253 µM): 0.557
- relative viability ([1]; first compound 0.8 µM): 0.542
- relative viability ([1]; first compound 2.53 µM): 0.368
- relative viability ([1]; first compound 8 µM): 0.305
- relative viability ([2]; first compound 0.08 µM): 0.21
- relative viability ([2]; first compound 0.253 µM): 0.195
- relative viability ([2]; first compound 0.8 µM): 0.175
- relative viability ([2]; first compound 2.53 µM): 0.331
- relative viability ([2]; first compound 8 µM): 0.274

Cell Line: LOU-NH91
- relative viability ([1]; first compound 0.08 µM): 0.824
- relative viability ([1]; first compound 0.253 µM): 0.775
- relative viability ([1]; first compound 0.8 µM): 0.826
- relative viability ([1]; first compound 2.53 µM): 0.815
- relative viability ([1]; first compound 8 µM): 0.765
- relative viability ([2]; first compound 0.08 µM): 1.09
- relative viability ([2]; first compound 0.253 µM): 1.04
- relative viability ([2]; first compound 0.8 µM): 0.912
- relative viability ([2]; first compound 2.53 µM): 1.04
- relative viability ([2]; first compound 8 µM): 0.82

Cell Line: LU99A
- relative viability ([1]; first compound 0.08 µM): 0.404
- relative viability ([1]; first compound 0.253 µM): 0.412
- relative viability ([1]; first compound 0.8 µM): 0.401
- relative viability ([1]; first compound 2.53 µM): 0.33
- relative viability ([1]; first compound 8 µM): 0.292
- relative viability ([2]; first compound 0.08 µM): 0.557
- relative viability ([2]; first compound 0.253 µM): 0.513
- relative viability ([2]; first compound 0.8 µM): 0.5
- relative viability ([2]; first compound 2.53 µM): 0.579
- relative viability ([2]; first compound 8 µM): 0.426

Cell Line: LXF-289
- relative viability ([1]; first compound 0.08 µM): 1.25
- relative viability ([1]; first compound 0.253 µM): 1.14
- relative viability ([1]; first compound 0.8 µM): 1.21
- relative viability ([1]; first compound 2.53 µM): 1.07
- relative viability ([1]; first compound 8 µM): 1.02
- relative viability ([2]; first compound 0.08 µM): 0.699
- relative viability ([2]; first compound 0.253 µM): 0.839
- relative viability ([2]; first compound 0.8 µM): 0.946
- relative viability ([2]; first compound 2.53 µM): 0.751
- relative viability ([2]; first compound 8 µM): 0.752

Cell Line: NCI-H23
- relative viability ([1]; first compound 0.08 µM): 0.229
- relative viability ([1]; first compound 0.8 µM): 0.227
- relative viability ([1]; first compound 2.53 µM): 0.18
- relative viability ([1]; first compound 8 µM): 0.243
- relative viability ([2]; first compound 0.08 µM): 0.661
- relative viability ([2]; first compound 0.8 µM): 0.653
- relative viability ([2]; first compound 2.53 µM): 0.666
- relative viability ([2]; first compound 8 µM): 0.622

Cell Line: NCI-H322M
- relative viability ([1]; first compound 0.08 µM): 0.671
- relative viability ([1]; first compound 0.253 µM): 0.696
- relative viability ([1]; first compound 0.8 µM): 0.54
- relative viability ([1]; first compound 2.53 µM): 0.615
- relative viability ([1]; first compound 8 µM): 0.488
- relative viability ([2]; first compound 0.08 µM): 0.935
- relative viability ([2]; first compound 0.253 µM): 0.968
- relative viability ([2]; first compound 0.8 µM): 0.907
- relative viability ([2]; first compound 2.53 µM): 0.894
- relative viability ([2]; first compound 8 µM): 0.885

Cell Line: NCI-H358
- relative viability ([1]; first compound 0.08 µM): 0.576
- relative viability ([1]; first compound 0.253 µM): 0.521
- relative viability ([1]; first compound 0.8 µM): 0.5
- relative viability ([1]; first compound 2.53 µM): 0.405
- relative viability ([1]; first compound 8 µM): 0.435
- relative viability ([2]; first compound 0.08 µM): 0.828
- relative viability ([2]; first compound 0.253 µM): 0.708
- relative viability ([2]; first compound 0.8 µM): 0.72
- relative viability ([2]; first compound 2.53 µM): 0.781
- relative viability ([2]; first compound 8 µM): 0.619

Cell Line: NCI-H441
- relative viability ([1]; first compound 0.08 µM): 1.38
- relative viability ([1]; first compound 0.253 µM): 1.36
- relative viability ([1]; first compound 0.8 µM): 1.19
- relative viability ([1]; first compound 2.53 µM): 1.18
- relative viability ([1]; first compound 8 µM): 1.21
- relative viability ([2]; first compound 0.08 µM): 0.947
- relative viability ([2]; first compound 0.253 µM): 0.884
- relative viability ([2]; first compound 0.8 µM): 0.764
- relative viability ([2]; first compound 2.53 µM): 0.813
- relative viability ([2]; first compound 8 µM): 0.595

Cell Line: NCI-H460
- relative viability ([1]; first compound 0.08 µM): 0.639
- relative viability ([1]; first compound 0.253 µM): 0.635
- relative viability ([1]; first compound 0.8 µM): 0.686
- relative viability ([1]; first compound 2.53 µM): 0.754
- relative viability ([1]; first compound 8 µM): 0.628
- relative viability ([2]; first compound 0.08 µM): 0.766
- relative viability ([2]; first compound 0.253 µM): 0.724
- relative viability ([2]; first compound 0.8 µM): 1.05
- relative viability ([2]; first compound 2.53 µM): 0.819
- relative viability ([2]; first compound 8 µM): 0.801

Cell Line: NCI-H520
- relative viability ([2]; first compound 0.08 µM): 0.783
- relative viability ([2]; first compound 0.253 µM): 0.671
- relative viability ([2]; first compound 0.8 µM): 0.681
- relative viability ([2]; first compound 2.53 µM): 0.685
- relative viability ([2]; first compound 8 µM): 0.589

Cell Line: NCI-H522
- relative viability ([1]; first compound 0.08 µM): 0.889
- relative viability ([1]; first compound 0.253 µM): 0.726
- relative viability ([1]; first compound 0.8 µM): 0.969
- relative viability ([1]; first compound 2.53 µM): 0.691
- relative viability ([1]; first compound 8 µM): 1
- relative viability ([2]; first compound 0.08 µM): 0.95
- relative viability ([2]; first compound 0.253 µM): 0.903
- relative viability ([2]; first compound 0.8 µM): 0.884
- relative viability ([2]; first compound 2.53 µM): 0.695
- relative viability ([2]; first compound 8 µM): 0.851

Cell Line: NCI-H596
- relative viability ([1]; first compound 0.08 µM): 1.06
- relative viability ([1]; first compound 0.8 µM): 1.03
- relative viability ([1]; first compound 2.53 µM): 0.889
- relative viability ([1]; first compound 8 µM): 1.03
- relative viability ([2]; first compound 0.08 µM): 0.715
- relative viability ([2]; first compound 0.8 µM): 0.662
- relative viability ([2]; first compound 2.53 µM): 0.658
- relative viability ([2]; first compound 8 µM): 0.587

Cell Line: NCI-H647
- relative viability ([1]; first compound 0.08 µM): 0.551
- relative viability ([1]; first compound 0.253 µM): 0.392
- relative viability ([1]; first compound 0.8 µM): 0.486
- relative viability ([1]; first compound 2.53 µM): 0.386
- relative viability ([1]; first compound 8 µM): 0.29
- relative viability ([2]; first compound 0.08 µM): 0.519
- relative viability ([2]; first compound 0.253 µM): 0.587
- relative viability ([2]; first compound 0.8 µM): 0.691
- relative viability ([2]; first compound 2.53 µM): 0.917
- relative viability ([2]; first compound 8 µM): 0.726
